Data set [1] concerns the target ATP-binding cassette sub-family C member 2 (Rattus norvegicus, UniProt Q63120). The data set can be described thus: TP_TRANSPORTER: inhibition of DNP-SG uptake in bile canalicular membrane vesicles from SD rat. In kind it is functional, cell membranes, Sprague-Dawley, Bile canalicular membrane vesicle.
Substrate in data set [2]: Nc1nc(N)c2nc(CN3CCSc4cc(C(=O)NC(CCCC(=O)O)C(=O)O)ccc43)cnc2n1
The data set can be described thus: TP_TRANSPORTER: uptake in bile canalicular membrane vesicles from SD rat. In kind it is functional, cell membranes, Sprague-Dawley, Bile canalicular membrane vesicle.

As usually defined, the Ki is a measure of affinity in units of concentration, obtained from inhibition or displacement. Higher therefore signals a looser hold on the target. By Km is commonly meant the substrate concentration at which the rate is half of its maximum.

For the molecule `Nc1nc(N)c2nc(CN3CCSc4cc(C(=O)NC(CCCC(=O)O)C(=O)O)ccc43)cnc2n1` (configuration not stated), the Ki in data set [1] was determined as 162 µM.

B1: ATP-binding cassette sub-family C member 2 (Rattus norvegicus) (protein)
chain: MDKFCNSTFWDLSLLESPEADLPLCFEQTVLVWIPLGFLWLLAPWQLYSVYRSRTKRSSITKFYLAKQVFVVFLLILAAIDLSLALTEDTGQATVPPVRYTNPILYLCTWLLVLAVQHSRQWCVRKNSWFLSLFWILSVLCGVFQFQTLIRALLKDSKSNMAYSYLFFVSYGFQIVLLILTAFSGPSDSTQTPSVTASFLSSITFSWYDRTVLKGYKHPLTLEDVWDIDEGFKTRSVTSKFEAAMTKDLQKARQAFQRRLQKSQRKPEATLHGLNKKQSQSQDVLVLEEAKKKSEKTTKDYPKSWLIKSLFKTFHVVILKSFILKLIHDLLVFLNPQLLKLLIGFVKSSNSYVWFGYICAILMFAVTLIQSFCLQSYFQHCFVLGMCVRTTVMSSIYKKALTLSNLARKQYTIGETVNLMSVDSQKLMDATNYMQLVWSSVIQITLSIFFLWRELGPSILAGVGVMVLLIPVNGVLATKIRNIQVQNMKNKDKRLKIMNEILSGIKILKYFAWEPSFQEQVQGIRKKELKNLLRFGQLQSLLIFILQITPILVSVVTFSVYVLVDSANVLNAEKAFTSITLFNILRFPLSMLPMVTSSILQASVSVDRLERYLGGDDLDTSAIRRVSNFDKAVKFSEASFTWDPDLEATIQDVNLDIKPGQLVAVVGTVGSGKSSLVSAMLGEMENVHGHITIQGSTAYVPQQSWIQNGTIKDNILFGSEYNEKKYQQVLKACALLPDLEILPGGDMAEIGEKGINLSGGQKQRVSLARAAYQDADIYILDDPLSAVDAHVGKHIFNKVVGPNGLLAGKTRIFVTHGIHFLPQVDEIVVLGKGTILEKGSYRDLLDKKGVFARNWKTFMKHSGPEGEATVNNDSEAEDDDDGLIPTMEEIPEDAASLAMRRENSLRRTLSRSSRSSSRRGKSLKNSLKIKNVNVLKEKEKEVEGQKLIKKEFVETGKVKFSIYLKYLQAVGWWSILFIILFYGLNNVAFIGSNLWLSAWTSDSDNLNGTNNSSSHRDMRIGVFGALGLAQGICLLISTLWSIYACRNASKALHGQLLTNILRAPMRFFDTTPTGRIVNRFSGDISTVDDLLPQTLRSWMMCFFGIAGTLVMICMATPVFAIIIIPLSILYISVQVFYVATSRQLRRLDSVTKSPIYSHFSETVTGLPIIRAFEHQQRFLAWNEKQIDINQKCVFSWITSNRWLAIRLELVGNLVVFCSALLLVIYRKTLTGDVVGFVLSNALNITQTLNWLVRMTSEAETNIVAVERISEYINVENEAPWVTDKRPPADWPRHGEIQFNNYQVRYRPELDLVLKGITCNIKSGEKVGVVGRTGAGKSSLTNCLFRILESAGGQIIIDGIDVASIGLHDLRERLTIIPQDPILFSGSLRMNLDPFNKYSDEEVWRALELAHLRSFVSGLQLGLLSEVTEGGDNLSIGQRQLLCLGRAVLRKSKILVLDEATAAVDLETDSLIQTTIRKEFSQCTVITIAHRLHTIMDSDKIMVLDNGKIVEYGSPEELLSNRGSFYLMAKEAGIENVNHTEL
Regarding B1, the Km in data set [2] worked out at 207 µM.
